One assay has as its system M-NFS-60 cells. The assay can be described thus: M-NFS-60 cell proliferation assay (Alamar Blue). The conditions noted are these: Mus musculus, read-out: CSF1R M-NFS-60 CTB:IC50. The assay is classed as cell-based, mouse. A digest of the protocol:
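Mouse M-NFS-60 cells growing on 20 ng/mL M-CSF in RPMI/10% FBS were exposed to compounds (9 half-log concentrations, 0.5% DMSO) for 72 h at 37 °C. Viability read by Alamar Blue fluorescence (ex 560/em 590 nm, 3 h). IC50 = 50% proliferation inhibition versus control, mean of duplicates.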

The target in another assay is T1, FLT3 (Homo sapiens, UniProt P36888).
T1 construct: made in house
T1 sequence (P36888 27-993): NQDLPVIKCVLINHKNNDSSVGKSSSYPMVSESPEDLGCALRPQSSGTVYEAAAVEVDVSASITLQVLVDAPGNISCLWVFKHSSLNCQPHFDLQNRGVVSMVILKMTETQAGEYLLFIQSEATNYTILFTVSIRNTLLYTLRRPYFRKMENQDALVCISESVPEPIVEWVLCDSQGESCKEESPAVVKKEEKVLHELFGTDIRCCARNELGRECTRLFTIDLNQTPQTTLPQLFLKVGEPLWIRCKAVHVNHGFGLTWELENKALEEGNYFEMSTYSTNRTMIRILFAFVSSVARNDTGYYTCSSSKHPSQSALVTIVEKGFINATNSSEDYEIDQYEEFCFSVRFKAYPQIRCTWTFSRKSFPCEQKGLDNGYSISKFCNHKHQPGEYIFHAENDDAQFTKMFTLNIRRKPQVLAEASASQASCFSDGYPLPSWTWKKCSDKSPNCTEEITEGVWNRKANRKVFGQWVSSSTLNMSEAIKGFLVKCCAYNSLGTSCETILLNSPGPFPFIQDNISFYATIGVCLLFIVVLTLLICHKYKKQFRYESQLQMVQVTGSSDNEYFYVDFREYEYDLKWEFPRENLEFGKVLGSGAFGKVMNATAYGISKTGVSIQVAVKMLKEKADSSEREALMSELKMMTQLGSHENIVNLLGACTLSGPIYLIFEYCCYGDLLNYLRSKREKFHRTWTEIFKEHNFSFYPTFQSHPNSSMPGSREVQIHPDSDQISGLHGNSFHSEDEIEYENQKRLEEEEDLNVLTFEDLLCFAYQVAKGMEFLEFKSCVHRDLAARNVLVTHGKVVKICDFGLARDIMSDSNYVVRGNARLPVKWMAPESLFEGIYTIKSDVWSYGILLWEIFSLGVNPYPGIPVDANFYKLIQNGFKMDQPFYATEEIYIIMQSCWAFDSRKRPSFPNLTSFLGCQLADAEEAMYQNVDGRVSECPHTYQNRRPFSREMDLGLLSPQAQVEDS
The assay can be described thus: Competition binding assay, FLT3 Kd. A digest of the protocol: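 Phage-fused or HEK-293/DNA-tagged kinase + ligand-coated streptavidin beads + compound, 1 h RT with shaking. Wash, elute with free ligand 30 min RT, qPCR of eluted kinase. Kd: 11-point 3-fold series.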

[1] abbreviates: 72 hours incubation, M-CSF 20 ng/mL.

Read-outs that look alike come from different tables or passages of the source.

Broadly, the IC50 is the concentration needed to halve the response being measured. The Kd is the constant that tells how readily two partners part at equilibrium. A low value points to tighter binding.

As for `Fc1cnc2c(c1)ncn2Cc1ccc2nc(N[C@@H]3CCCC[C@@H]3Cl)sc2c1` [Example 219, N-((1R,2S)-2-chlorocyclohexyl)-6-((6-fluoro-3H-imidazo[4,5-b]pyridin-3-yl)methyl)benzo[d]thiazol-2-amine], the IC50 in the assay with M-NFS-60 cells (M-NFS-60 cell proliferation) lay within 0.4 to 1.5 µM. At FLT3 (competition binding), this compound had a Kd of 1 to 5 µM.
On to `CS(=O)(=O)c1cnc2c(c1)ncn2Cc1ccc2nc(N[C@@H]3CCCC[C@H]3O)sc2c1` [Example 74, (1R,2R)-2-((6-((6-(methylsulfonyl)-3H-imidazo[4,5-b]pyridin-3-yl)methyl)benzo[d]thiazol-2-yl)amino)cyclohexanol], for which the IC50 in the assay on M-NFS-60 cells (setting [1]) lay in the range of 0.05 to 0.4 µM. At FLT3, the dissociation constant Kd is not above 0.2 µM.
Turning to `CC(=NO)c1ccn2c(Cc3ccc4nc(N[C@@H]5CCCC[C@H]5O)sc4c3)cnc2c1` [Example 202, 1-(3-((2-(((1R,2R)-2-hydroxycyclohexyl)amino)benzo[d]thiazol-6-yl)methyl)imidazo[1,2-a]pyridin-7-yl)ethanone oxime], in the assay on M-NFS-60 cells (M-NFS-60 cell proliferation), the half-maximal inhibitory concentration (IC50) fell in the range of 0.05 to 0.4 µM. The compound further showed a Kd at FLT3 (competition binding) of 1 to 5 µM.
The corresponding values for `N#Cc1cc(F)c2c(c1)ncn2Cc1ccc2nc(N[C@@H]3CCCC[C@H]3O)sc2c1` [Example 206, 7-fluoro-1-((2-(((1R,2R)-2-hydroxycyclohexyl)amino)benzo[d]thiazol-6-yl)methyl)-1H-benzo[d]imidazole-5-carbonitrile] are 0.05 to 0.4 µM and 0.2 to 1 µM.
With `C=Cc1cnc2c(c1)ncn2Cc1ccc2nc(N[C@@H]3CCCC[C@H]3O)sc2c1` [Example 98, (1R,2R)-2-((6-((6-vinyl-3H-imidazo[4,5-b]pyridin-3-yl)methyl)benzo[d]thiazol-2-yl)amino)cyclohexanol], the IC50 with M-NFS-60 cells (setting [1]) was not above 0.05 µM. Also, the Kd on FLT3 was in the range of 0.2 to 1 µM.
For `COc1cc2ncn(Cc3ccc4nc(N[C@@H]5CCCC[C@H]5O)oc4c3)c2cc1OC` [Example 34, (1R,2R)-2-((6-((5,6-dimethoxy-1H-benzo[d]imidazol-1-yl)methyl)benzo[d]oxazol-2-yl)amino)cyclohexanol], the IC50 in the assay on M-NFS-60 cells (setting [1]) was in the range of 0.05 to 0.4 µM. The compound further came in with a Kd at FLT3 not above 0.2 µM.
For `O=C(O)c1cnc2c(c1)ncn2Cc1ccc2nc(N[C@@H]3CCCC[C@H]3O)sc2c1` [Example 81, 3-((2-(((1R,2R)-2-hydroxycyclohexyl)amino)benzo[d]thiazol-6-yl)methyl)-3H-imidazo[4,5-b]pyridine-6-carboxylic acid] the same measures were more than 1.5 µM and 1 to 5 µM.
The corresponding values for `O[C@@H]1Cc2ccccc2[C@H]1Nc1nc2ccc(Cn3cnc4cccnc43)cc2s1` [Example 46, (1R,2R)-1-((6-((3H-imidazo[4,5-b]pyridin-3-yl)methyl)benzo[d]thiazol-2-yl)amino)-2,3-dihydro-1H-inden-2-ol] are 0.05 to 0.4 µM and 1 to 5 µM.
The corresponding values for `C#Cc1cnc2c(c1)ncn2Cc1ccc2nc(N[C@@H]3CCCC[C@H]3O)sc2c1` [Example 96, (1R,2R)-2-((6-((6-ethynyl-3H-imidazo[4,5-b]pyridin-3-yl)methyl)benzo[d]thiazol-2-yl)amino)cyclohexanol] are not above 0.05 µM and not above 0.2 µM.
Consider `O[C@@H]1CCCC[C@H]1Nc1nc2ccc(Cn3cnc4cc(Cl)cnc43)cc2s1` [Example 55, (1R,2R)-2-((6-((6-chloro-3H-imidazo[4,5-b]pyridin-3-yl)methyl)benzo[d]thiazol-2-yl)amino)cyclohexanol], for which the half-maximal inhibitory concentration (IC50) in the assay on M-NFS-60 cells (setting [1]) is not above 0.05 µM. This compound also showed a Kd on FLT3 of 1 to 5 µM.
The corresponding values for `CSc1cnc2c(c1)ncn2Cc1ccc2nc(N[C@@H]3CCCC[C@H]3O)sc2c1` [Example 85, (1R,2R)-2-((6-((6-(methylthio)-3H-imidazo[4,5-b]pyridin-3-yl)methyl)benzo[d]thiazol-2-yl)amino)cyclohexanol] are not above 0.05 µM and 0.2 to 1 µM.
For `Cn1cc(-c2cn(Cc3ccc4nc(N[C@@H]5CCCC[C@H]5O)sc4c3)cn2)cn1` [Example 36, (1R,2R)-2-((6-((4-(1-methyl-1H-pyrazol-4-yl)-1H-imidazol-1-yl)methyl)benzo[d]thiazol-2-yl)amino)cyclohexanol] the same measures were 0.05 to 0.4 µM and more than 5 µM.
Regarding `O=C1CCCCN1c1ccc2c(c1)ncn2Cc1ccc2nc(N[C@@H]3CCCC[C@H]3O)sc2c1` [Example 210, 1-(1-((2-(((1R,2R)-2-hydroxycyclohexyl)amino)benzo[d]thiazol-6-yl)methyl)-1H-benzo[d]imidazol-5-yl)piperidin-2-one], in the assay with M-NFS-60 cells (M-NFS-60 cell proliferation), the 50% inhibitory concentration (IC50) was more than 1.5 µM. The compound further registered a Kd at FLT3 (competition binding) of more than 5 µM.
For `CS(=O)(=O)c1ccc2ncn(Cc3ccc4nc(N[C@@H]5CCCC[C@H]5O)sc4c3)c2n1` [Example 106, (1R,2R)-2-((6-((5-(methylsulfonyl)-3H-imidazo[4,5-b]pyridin-3-yl)methyl)benzo[d]thiazol-2-yl)amino)cyclohexanol] the same measures were more than 1.5 µM and 0.2 to 1 µM.
For the compound `COc1ccn2c(Cc3ccc4nc(N[C@@H]5CCCC[C@H]5O)sc4c3)cnc2c1` [Example 44, (1R,2R)-2-((6-((7-methoxyimidazo[1,2-a]pyridin-3-yl)methyl)benzo[d]thiazol-2-yl)amino)cyclohexanol], the IC50 with M-NFS-60 cells (setting [1]) lay within 0.05 to 0.4 µM. The compound also yielded a Kd at FLT3 of more than 5 µM.
The corresponding values for `CNC(=O)c1cn(Cc2ccc3nc(N[C@@H]4CCCC[C@H]4O)sc3c2)cn1` [Example 37, 1-((2-(((1R,2R)-2-hydroxycyclohexyl)amino)benzo[d]thiazol-6-yl)methyl)-N-methyl-1H-imidazole-4-carboxamide] are more than 1.5 µM and more than 5 µM.
The corresponding values for `O[C@@H]1Cc2ccccc2[C@H]1Nc1nc2ccc(Cn3cnc4cc(Br)cnc43)cc2s1` [Example 42, (1R,2R)-1-((6-((6-bromo-3H-imidazo[4,5-b]pyridin-3-yl)methyl)benzo[d]thiazol-2-yl)amino)-2,3-dihydro-1H-inden-2-ol] are 0.05 to 0.4 µM and 1 to 5 µM.
For `N#CCOc1ccc2c(c1)ncn2Cc1ccc2nc(N[C@@H]3CCCC[C@H]3O)sc2c1` [Example 196, 2-((1-((2-(((1R,2R)-2-hydroxycyclohexyl)amino)benzo[d]thiazol-6-yl)methyl)-1H-benzo[d]imidazol-5-yl)oxy)acetonitrile], in the assay on M-NFS-60 cells (M-NFS-60 cell proliferation), the IC50 was 0.05 to 0.4 µM. On FLT3 (competition binding), the Kd fell in the range of 0.2 to 1 µM.
As to `O[C@@H]1CCCC[C@H]1Nc1nc2ccc(Cn3cnc4cc(N5CCOCC5)ccc43)cc2s1` [Example 209, (1R,2R)-2-((6-((5-morpholino-1H-benzo[d]imidazol-1-yl)methyl)benzo[d]thiazol-2-yl)amino)cyclohexanol], the IC50 in the assay with M-NFS-60 cells (M-NFS-60 cell proliferation) lay within 0.05 to 0.4 µM. The compound further gave an equilibrium dissociation constant (Kd) at FLT3 (competition binding) of 0.2 to 1 µM.
For `Cn1cc(-c2cn(Cc3ccc4nc(N[C@@H]5CCCC[C@H]5O)oc4c3)cn2)cn1` [Example 77, (1R,2R)-2-((6-((4-(1-methyl-1H-pyrazol-4-yl)-1H-imidazol-1-yl)methyl)benzo[d]oxazol-2-yl)amino)cyclohexanol], the half-inhibitory concentration (IC50) in the assay on M-NFS-60 cells (setting [1]) is 0.4 to 1.5 µM. This compound had a Kd at FLT3 of 1 to 5 µM.
For `O[C@@H]1CCCC[C@H]1Nc1nc2ccc(Cn3cnc4cc(Br)ccc43)cc2s1` [Example 100, (1R,2R)-2-((6-((5-bromo-1H-benzo[d]imidazol-1-yl)methyl)benzo[d]thiazol-2-yl)amino)cyclohexanol], the half-inhibitory concentration (IC50) in the assay on M-NFS-60 cells (setting [1]) was in the range of 0.05 to 0.4 µM. For the same compound, the dissociation constant (Kd) on FLT3 fell in the range of 1 to 5 µM.

The record behind these values is patent US9938261B2, “Heterocyclic compounds and methods of use thereof” (AMBIT BIOSCIENCES CORPORATION, priority 2011, dated 2018).
